Residues, ends and D or L forms follow the SMILES beside them.

Data set [1] is described as follows: Effect of pH on solubility of OmpAPerSD and PG1. It counts as physicochemical. The following applies: chemically synthesized samples, pH 1 to 12, 15 minutes at room temperature, supernatant by BCA total protein; FIG. 6. As to the method:
Stock solutions of chemically synthesized samples of OmpAPerSD and PG1 were made in 0.1N NaOH. The pH of each sample was adjusted by the addition of 0.2 M sodium phosphate buffer or 0.1N HCl. Finally, water was added to make the final volume of each sample the same and the samples were mixed by vortexing. After 15 minutes at room temperature all samples were centrifuged at 13,000×g in a micro-centrifuge. The supernatants were carefully separated from the insoluble precipitates and analyzed for protein by the BCA total protein method. Protein determinations were made using standard solutions of synthetic OmpAPerSD and PG1, respectively, in 0.1N NaOH. […] The difference in pH solubility of OmpAPerSD and PG1 peptides, with maximal difference at low pH, lends to their ready separation by centrifugation or filtration.

Data set [2] concerns E. coli expression host. Description: Growth of E. coli host cells expressing the fusion proteins (shake flask studies). The format is cell-based. The note with it: tryptophan induction. As to the method: Single colonies of E. coli containing pLH117 or pLH119 were grown in Rich Medium overnight at 30° C. at 250 rpm. A fresh culture was started the following day using 10% of the overnight growth diluted in Induction media and grown to an OD550 of 0.8. Induction media had no tryptophan (1×M9 salts, 0.2% casamino acids, 0.5% glucose, 1 mM MgCl2, and 100 ug/ml ampicillin). To facilitate induction, tryptophan was added for a final concentration of 100 μg/ml and flasks were incubated at 37° C. with shaking at 300 rpm. Samples were taken pre-induction and at 4, 8, and 12 hr post induction. Cell pellets were collected by centrifugation and analyzed for protein production.
Single colonies of E. coli containing pLH121 or pLH122 were grown in Rich Medium overnight at 30° C. at 250 rpm. A fresh culture was started the following day using 10% of the overnight growth in Induction medium and grown to an OD550 of 1.0 at 37°. To facilitate induction, tryptophan was added for a final concentration of 100 μg/ml. Samples were taken pre-induction and at 5 hr post induction. Cell pellets were collected by centrifugation and analyzed for protein production.

With `CC[C@H](C)[C@H](NC(=O)[C@H](C)NC(=O)[C@@H](NC(=O)[C@H](C)NC(=O)[C@@H](NC(=O)[C@H](CCCCN)NC(=O)[C@H](CCCCN)NC(=O)[C@@H](N)CCSC)[C@@H](C)O)[C@@H](C)CC)C(=O)N[C@@H](C)C(=O)N[C@H](C(=O)N[C@@H](C)C(=O)N[C@@H](CC(C)C)C(=O)N[C@@H](C)C(=O)NCC(=O)N[C@@H](Cc1ccccc1)C(=O)N[C@@H](C)C(=O)N[C@H](C(=O)N[C@H](C(=O)N[C@@H](C)C(=O)N[C@@H](CCC(N)=O)C(=O)N[C@@H](C)C(=O)N[C@@H](CC(=O)O)C(=O)O)C(C)C)[C@@H](C)O)C(C)C` [OmpAPerSD] (H-MKKTAIAIAVALAGFATVAQAD-OH; N-terminus and C-terminus assumed), the “solubility over a range of pH” value in data set [1] is “increases with increasing pH”.

As for “OmpA targeting signal sequence-16KGLG1-6His: fusion protein of OmpA periplasmic targeting signal, 16KGLG1 and 6His tag, expressed from pLH119 (MKKTAIAIAVALAGFATVAQAKGLKKLLKGLKKLLKLHHHHHH; OmpA PerS-G1-6His fusion protein)”, the “growth of cells expressing the fusion protein versus control cells containing only pLEX” value in data set [2] is on record as “grew at similar rates as control cells”.

In the case of `CC(C)C[C@H](NC(=O)[C@H](CCCCN)NC(=O)[C@H](CC(C)C)NC(=O)[C@H](CC(C)C)NC(=O)[C@H](CCCCN)NC(=O)[C@H](CCCCN)NC(=O)[C@H](CC(C)C)NC(=O)CNC(=O)[C@H](CCCCN)NC(=O)[C@H](CC(C)C)NC(=O)[C@H](CC(C)C)NC(=O)[C@H](CCCCN)NC(=O)[C@H](CCCCN)NC(=O)[C@H](CC(C)C)NC(=O)CNC(=O)[C@H](CCCCN)NC(=O)[C@@H]1CCCN1)C(=O)O` [P16KGLG1] (H-PKGLKKLLKGLKKLLKL-OH; N-terminus and C-terminus assumed), the “solubility over a range of pH” value in data set [1] is recorded as “does not appear to be pH dependent”.

Values taken from patent US7579005B2, “Process for recombinant expression and purification of antimicrobial peptides using periplasmic targeting signals as precipitable hydrophobic tags” (E. I. du Pont de Nemours and Company, priority 2005, dated 2009).
